Experimental findings from patent US6409508B1, “Use of ozone for the treatment of dental caries” (Natural White, priority 1998, dated 2002) are described below.

Type in all cases: cell-based
Test [1] deals with Streptococcus mutans; NCTC 10449. Kind of test: Ozone on S. mutans on saliva coated glass beads. To be noted: 10 seconds of ozone applied to glass beads. The source says: (§1) The aims of these studies were to evaluate the efficiency of ozone on primary root caries and associated micro-organisms (Streptococcus sobrinus; TH 21, Streptococcus mutans; NCTC 10449). In study 1, 40 soft primary root carious lesions (PRCLs) from freshly extracted teeth were used and randomly divided into two groups to test the exposure to ozone for either 10 or 20 seconds. There was a significant (p<0.001) difference (Mean±SE) between the control samples for. either 10 seconds (log10 5.91±0.15) or 20 seconds (log10 6.18±0.21) and ozone treated samples for either 10 seconds (log10 3.57±0.37) or 20 seconds (log10 3.77±0.42). In study 2, 40 sterile saliva coated glass beads were put into bijoux bottles with 3 mls of Todd Hewitt broth for control and test groups. S. sobrinus and S. mutans were inoculated and incubated anaerobically overnight. Each glass bead was washed with 2 mls of PBS. Immediately, 10 seconds of ozone was applied to the glass beads in the test groups. Subsequently, each glass bead in the test and control groups was placed in 3 mls of Todd Hewitt Broth with six more sterile glass beads and were vortexed for 30 seconds. After decimal dilutions, 100 ml aliquots were spread on blood agar plates supplemented with 5% (V/V) horse blood and placed in an anaerobic chamber at 37° C. for two days. The number of each colony type was counted and calculated. […]

The test system of test [2] is micro-organisms in primary root carious lesions (PRCL). Nature of the test: Ozone effect on microflora from primary root caries ex-vivo. To be noted: for Mean ± SE of total cfu (Log10): after 10 seconds of ozone treatment.
From the text: Primary root carious lesions (PRCL) are a major clinical problem. The aim of this study was to establish if ozone could achieve effective microbial killing in PRCL. An ozone producing generator (Purezone Ltd., Ipswich, U.K.) was used in this ex-vivo study assessing the use of ozone on PRCL. In this study, soft PRCL requiring restoration were used as these are the most severe type of lesion found in humans. 20 freshly extracted teeth with PRCL requiring restoration were used. After plaque removal using a hand held standard fine nylon fibre sterile toothbrush with sterile water as a lubricant to cleanse the surface, each tooth was then isolated using sterile cotton wool rolls and dried using a dry sterile cotton wool roll. […] Each sample was weighed and immediately placed in 1 ml of Fastidious Anaerobe Broth (FAB). To each 1 ml of FAB containing a biopsy of carious or ozone treated carious dentine, sterile glass beads were added. They were vortexed for 30 seconds to facilitate the extraction of any micro-organisms from the carious dentine and disperse any aggregates. After decimal dilution with FAB, […] of these was spread on Fastidious Anaerobe Agar (LabM. Bury, Lancs., U.K.) supplemented with 5% (V/V) horse blood in an anaerobic chamber at 37° C. for four days. The mean±SE number of each colony type was counted and calculated.
The procedure of Example 2 was repeated except that ozonised water was applied to the lesion for 20 seconds.
as §1, with “After decimal dilutions, 100 ml aliquots were spread on blood agar plates supplemented with 5% (V/V) horse blood and placed in an anaerobic chamber at 37° C. for two days.” left out

The test system of test [3] is Streptococcus sobrinus; TH 21. Kind of test: Ozone on S. sobrinus on saliva coated glass beads. To be noted: 10 seconds of ozone applied to glass beads.
From the text: as §1

As to `O=[O+][O-]` [Ozone, ozone], in test [1], the “colony count (log, Mean±SE)” value is given as 1.01±0.27 log. Besides, the “percentage of micro-organisms killed” value in test [2] (10 seconds of ozone treatment) was “more than 99%”. Further, the “Mean ± SE of total cfu (Log10)” value in test [2] (soft PRCL, freshly extracted teeth) is 3.57 ± 0.37 Log10; in test [2] (soft PRCL, freshly extracted teeth, listed as ozone), 3.57±0.37 Log10. Also, in test [2] (after 20 seconds of ozone (ozonised water) treatment, soft PRCL, freshly extracted teeth), the “Mean ± SE of total cfu (log10)” value came to 3.77±0.42 log10. Besides, in test [3], the “colony count (log10, Mean±SE)” value is 1.09±0.36 log10.
